Ends that are not written are not given here.
Experiments:
[1] = tested on: mouse cornea; experiment: In vivo model of corneal wound healing (corneal epithelial abrasion)
Experimental: The in vivo model of wound healing was carried out using a disposable biopsy punch (2 mm, Miltex, York, Pa.) to demarcate the mouse cornea and a 0.5 mm burr using the AlgerBrush II (The Alger Company, Inc., Lago Vista, Tex.) to remove the corneal epithelium. The corneal abrasions were treated at 0 and 16 hours with peptide 95-122 (10^−5 M), peptide 120-146WH (10^−6 M and 10^−8M), peptide 120-146WR ((10^−6 M and 10^−8M), or vehicle control (0.9% sodium chloride, pH 5.5, Baxter, Deerfield, Ill.). Corneal abrasions were visualized using sterile fluorescein sodium ophthalmic strips USP (Fluorets®, Chauvin Laboratory, Aubenas, France) dampened with sterile PBS. Images were taken at 0, 16, and 24 hours immediately following fluorescein staining.
Mice were anesthetized using ketamine (100 mg/kg; Bionichepharma, LLC., St. Lake Forrest, Ill.) and xylazine ([…]; Rompun; Bayer Corp., Shawnee Mission, Kans.), and the right cornea was wounded as follows. A disposable biopsy punch (2 mm, Miltex, York, Pa.) was used to demarcate the mouse cornea. The corneal epithelium was carefully removed within the 2 mm demarcated area with a 0.5 mm burr using the AlgerBrush II (The Alger Company, Inc., Lago Vista, Tex.). The corneal abrasions were treated at 0 and 16 hours with HB-EGF (250 ng/ml), rCAP37 (250 ng/ml), or vehicle control (0.9% sodium chloride, pH 5.5, Baxter, Deerfield, Ill.). Corneal abrasions were visualized using sterile fluorescein sodium ophthalmic strips USP (FLUORETS®, Chauvin Laboratory, Aubenas, France) dampened with sterile PBS. Images were taken at 0, 16, 24, and 48 hours immediately following fluorescein staining using a surgical microscope equipped with a camera (Carl Zeiss OPMI VISU 140, Carl Zeiss Surgical, Inc., Oberkochen, Germany). The areas of the open wound were quantitated using ImageJ software (US National Institutes of Health), and the results were reported as the percentage of wound closure.
Whole mouse eyes were collected for histology at 0, 6, 16, 24, and 48 hours post wounding and were immediately placed in Prefer fixative (Anatech LTD., Battle Creek, Mich.) for 20 minutes before being transferred to 70% ethanol. Tissues were paraffin-embedded and cut at a thickness of 5 μm, mounted on SUPERFROSTPLUS® slides (Statlab Medical Products, Lewisville, Tex.), and subsequently deparaffinized, rehydrated, and washed in deionized water. Sections were stained with hematoxylin (Leica Microsystems, Buffalo Grove, Ill.) and rinsed twice in deionized water before being washed in Blue Buffer (Leica Microsystems). The sections were finally washed in deionized water and 95% ethanol prior to being counterstained with eosin (Leica Microsystems). Sections were dehydrated in ethanol and cleared in xylene.

[2] = tested on: swine skin; experiment: Swine full thickness excisional dermal wound model; type: in vivo; settings: for Mean Wound Healing (%): topical 3 mg/ml, 0.20 ml per wound daily; for histology: epidermal resurfacing and maturation vs saline control: day 14 post-wounding; for dermal wound healing vs saline: topically at 3 mg/ml, over 14 days; for Histopathology Results, Mean Angiogenesis / Histopathology Results, Mean Epithelization / Histopathology Results, Mean Granulation / Histopathology Results, Mean Inflammation: wounds harvested day 14, 3 mg/ml topical
Experimental: In this Example, peptide compounds of the presently disclosed and claimed inventive concept(s) were evaluated as to their activity on the dermal wound healing process in a clinically relevant swine full thickness excisional wound model. Three different peptide formulations (Group B, Peptide 95-122 (SEQ ID NO:26); Group C, Peptide 120-146WH (SEQ ID NO:31); and Group D, Peptide 120-146QH-5RMP (SEQ ID NO:33)) were each evaluated at the same concentration (3 mg/ml). Sterile saline served as the control (Group A).
Full thickness excisional wounds were induced on the dorsum of swine (N=3) using a 1.0 cm biopsy punch. Treatments were administered (0.20 ml) to each wound (N=6 wounds per group), and the wounds were dressed with standard occlusive dressing ([…]™, 3M Corporation, St. Paul, Minn.). Treatments were reapplied daily and dressings changed. Clinical wound healing observations and wound area (2 mm) measurements were performed on days 0, 3, 5, 7, 10, and 14 post-wounding. Wound area (2 mm) data were expressed as percentage (%) of wound healing. Animals were terminated on day 14 with wounds harvested and processed for histological evaluation. […] All peptide formulation treatment groups healed faster with greater rate of closure and re-epithelialization over time, as compared to the saline control (Group A).

| Sequence | amount of corneal wound healing vs vehicle-treated ([1]; 10^−8M or 10^−6M at 0 and 16 hours, closure at 16 and 24 hours) | Mean Wound Healing (%) ([2]; Day 0) | Mean Wound Healing (%) ([2]; Day 3) | Mean Wound Healing (%) ([2]; Day 5) | Mean Wound Healing (%) ([2]; Day 7) | Mean Wound Healing (%) ([2]; Day 10) | Mean Wound Healing (%) ([2]; Day 14) | histology: epidermal resurfacing and maturation vs saline control [2] | dermal wound healing vs saline [2] | Histopathology Results, Mean Angiogenesis [2] | Histopathology Results, Mean Epithelization [2] | Histopathology Results, Mean Granulation [2] | Histopathology Results, Mean Inflammation [2] | corneal wound healing (wound closure at 16 and 24 hours) vs vehicle ([1]; 10^−5 M at 0 and 16 hours) |
| --- | --- | --- | --- | --- | --- | --- | --- | --- | --- | --- | --- | --- | --- | --- |
| GTRCQVAGWGSWHSGGRLSRFPRFVNV [Peptide 120-146WH] | significantly greater | 0.0% | 22.1% | 35.9% | 59.7% | 93.5% | 97.5% | greater extent of epidermal resurfacing and maturation of the epidermis | accelerate dermal wound healing | 1.7 | 3.7 | 4.0 | 0.5 |  |
| LDREANLTSSVTILPLPLQNATVEAGTR (listed as Homo sapiens) [Peptide 95-122] |  | 0.0% |  |  |  |  | 100.0% | greater extent of epidermal resurfacing and maturation of the epidermis | accelerate dermal wound healing | 2.3 | 4.0 | 4.0 | 0.5 | promotes corneal wound healing |
